Assay results reported in ChEMBL document CHEMBL1142714, “Synthesis and pharmacological evaluation of huprine-tacrine heterodimers: subnanomolar dual binding site acetylcholinesterase inhibitors” (J Med Chem, 2005).

Experiments:
Acetylcholinesterase [1] = molecular target: T1, Acetylcholinesterase (Bos taurus, UniProt P23795); experiment: Inhibitory concentration against Acetylcholinesterase from bovine erythrocytes after 45 min incubation
T1 sequence (P23795 whole entry): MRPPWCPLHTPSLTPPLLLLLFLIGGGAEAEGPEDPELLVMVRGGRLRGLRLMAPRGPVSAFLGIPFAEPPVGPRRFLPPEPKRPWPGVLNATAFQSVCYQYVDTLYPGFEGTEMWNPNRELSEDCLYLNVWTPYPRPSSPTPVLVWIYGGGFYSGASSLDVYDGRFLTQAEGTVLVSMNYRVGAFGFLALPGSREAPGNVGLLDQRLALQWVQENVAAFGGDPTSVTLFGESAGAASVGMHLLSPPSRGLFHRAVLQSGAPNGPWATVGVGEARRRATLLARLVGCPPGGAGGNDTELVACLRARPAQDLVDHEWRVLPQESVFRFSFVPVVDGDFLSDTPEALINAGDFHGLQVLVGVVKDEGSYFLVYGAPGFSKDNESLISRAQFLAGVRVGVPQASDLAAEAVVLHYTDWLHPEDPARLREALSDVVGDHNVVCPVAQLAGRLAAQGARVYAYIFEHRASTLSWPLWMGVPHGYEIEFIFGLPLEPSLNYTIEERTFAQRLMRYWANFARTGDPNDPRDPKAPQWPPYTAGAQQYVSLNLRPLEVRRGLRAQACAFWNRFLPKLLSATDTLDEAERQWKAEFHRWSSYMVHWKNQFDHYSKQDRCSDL

Acetylcholinesterase [2] = molecular target: Acetylcholinesterase (Homo sapiens, UniProt P22303)
Sequence of Acetylcholinesterase (Homo sapiens, UniProt P22303) (P22303 whole entry): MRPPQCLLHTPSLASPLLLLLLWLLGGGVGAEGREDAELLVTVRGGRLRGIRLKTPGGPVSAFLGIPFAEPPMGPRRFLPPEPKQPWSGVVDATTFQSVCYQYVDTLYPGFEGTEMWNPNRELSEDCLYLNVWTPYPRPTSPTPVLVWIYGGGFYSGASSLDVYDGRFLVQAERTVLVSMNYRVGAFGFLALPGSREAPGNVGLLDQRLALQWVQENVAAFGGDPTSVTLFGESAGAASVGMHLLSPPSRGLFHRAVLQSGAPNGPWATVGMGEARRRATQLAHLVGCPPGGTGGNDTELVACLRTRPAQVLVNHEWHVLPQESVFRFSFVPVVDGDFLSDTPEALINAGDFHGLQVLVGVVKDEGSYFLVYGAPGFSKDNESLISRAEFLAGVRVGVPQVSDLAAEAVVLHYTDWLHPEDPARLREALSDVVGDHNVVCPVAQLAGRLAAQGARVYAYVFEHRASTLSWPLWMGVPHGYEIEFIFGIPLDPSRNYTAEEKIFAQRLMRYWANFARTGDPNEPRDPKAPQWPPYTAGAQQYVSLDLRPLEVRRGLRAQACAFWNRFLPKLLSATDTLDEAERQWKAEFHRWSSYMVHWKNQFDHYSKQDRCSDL
Description: Inhibitory concentration against Acetylcholinesterase from human erythrocytes

Cholinesterase = Cholinesterase (Homo sapiens, UniProt P06276)
Sequence of Cholinesterase (P06276 whole entry): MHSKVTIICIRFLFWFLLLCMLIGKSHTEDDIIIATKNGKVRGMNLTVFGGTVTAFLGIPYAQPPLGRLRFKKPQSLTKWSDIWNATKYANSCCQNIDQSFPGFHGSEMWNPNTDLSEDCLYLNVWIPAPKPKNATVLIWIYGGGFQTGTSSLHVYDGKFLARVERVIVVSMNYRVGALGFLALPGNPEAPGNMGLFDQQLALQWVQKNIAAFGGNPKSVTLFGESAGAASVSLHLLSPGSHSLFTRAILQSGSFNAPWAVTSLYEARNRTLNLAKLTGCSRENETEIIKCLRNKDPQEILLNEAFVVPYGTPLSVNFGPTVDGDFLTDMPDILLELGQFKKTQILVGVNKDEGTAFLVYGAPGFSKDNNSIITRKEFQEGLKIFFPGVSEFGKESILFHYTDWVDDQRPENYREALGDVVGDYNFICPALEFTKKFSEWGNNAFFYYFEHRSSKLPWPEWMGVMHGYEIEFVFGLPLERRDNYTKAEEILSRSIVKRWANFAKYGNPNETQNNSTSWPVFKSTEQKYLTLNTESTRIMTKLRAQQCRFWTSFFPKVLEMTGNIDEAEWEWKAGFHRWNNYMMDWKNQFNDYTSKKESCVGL
Description: Inhibitory concentration against Butyrylcholinesterase from human erythrocytes

Acetylcholinesterase [3] = molecular target: T1, Acetylcholinesterase

| Compound | IC50 (Acetylcholinesterase [1]) | IC50 (Acetylcholinesterase [2]) | IC50 (Cholinesterase) | IC50 (Acetylcholinesterase [3]) |
| --- | --- | --- | --- | --- |
| CC1=CC2Cc3nc4cc(Cl)ccc4c(NCCCCCCNc4c5c(nc6cc(Cl)ccc46)CCCC5)c3C(C1)C2 (stereo unspecified) | 800 pM | 450 pM | 14000 pM | 1060 pM |
| CC1=C[C@@H]2Cc3nc4cc(Cl)ccc4c(NCCCN(C)CCCCNc4c5c(nc6cc(Cl)ccc46)CCCC5)c3[C@H](C1)C2 | 440 pM | 290 pM | 31100 pM | 540 pM |
| CC1=CC2Cc3nc4cc(Cl)ccc4c(NCCCCCCNc4c5c(nc6ccccc46)CCCC5)c3C(C1)C2 (stereo unspecified) | 270 pM | 500 pM | 7690 pM | 400 pM |
| CC1=CC2Cc3nc4cc(Cl)ccc4c(NCCCCCCCCNc4c5c(nc6cc(Cl)ccc46)CCCC5)c3C(C1)C2 (stereo unspecified) | 1310 pM | 400 pM | 7800 pM | 2090 pM |
| CC1=CC2Cc3nc4cc(Cl)ccc4c(NCCCCCCCCNc4c5c(nc6ccccc46)CCCC5)c3C(C1)C2 (stereo unspecified) | 650 pM | 330 pM | 4740 pM | 1260 pM |
| CC1=CC2Cc3nc4cc(Cl)ccc4c(NCCCCCCCNc4c5c(nc6ccccc46)CCCC5)c3C(C1)C2 (stereo unspecified) | 360 pM | 340 pM | 6700 pM | 480 pM |
| CC1=CC2Cc3nc4cc(Cl)ccc4c(NCCCCCCCNc4c5c(nc6cc(Cl)ccc46)CCCC5)c3C(C1)C2 (stereo unspecified) | 1600 pM | 330 pM | 7380 pM | 1970 pM |
| CCC1=CC2Cc3nc4ccccc4c(NCCCCCCCCNc4c5c(nc6ccccc46)CCCC5)c3C(C1)C2 (stereo unspecified) | 1670 pM | 820 pM | 5550 pM | 2190 pM |
| CC1=C[C@@H]2Cc3nc4cc(Cl)ccc4c(NCCCN(C)CCCCNc4c5c(nc6ccccc46)CCCC5)c3[C@H](C1)C2 | 260 pM | 320 pM | 16400 pM | 330 pM |
